Measured values from article PMC9026148, “Pre-Clinical Study Evaluating Novel Protein Phosphatase 2A Activators as Therapeutics for Neuroblastoma” (Cancers, 2022).

Tests used:
[1] = system: SK-N-AS, SK-N-BE(2), SH-EP, WAC2, COA6, COA129 cells; test: CellTiter 96 proliferation, long-term cell lines and PDX cells; assay type: cell-based, human; conditions: increasing doses, 24 h
Method: (§1) CellTiter 96® Aqueous One Solution Cell Proliferation assay (Promega, Madison, WI, USA) was used to examine proliferation, and alamarBlue® assay (Thermo Fisher Scientific, Inc.) was used to evaluate viability. Cells, concentrations ranging from 5 × 10^3 to 1.5 × 10^4, depending on cell type due to wide variation in growth characteristics between established cell lines and PDX cells, were plated in 96-well plates and treated with increasing doses of 792 or 1154 for 24 h. CellTiter 96® or alamarBlue® dye (10 µL) was added for proliferation and viability assays, respectively. A microplate reader (Epoch Microplate Spectrophotometer, BioTek Instruments, Winooski, VT) measured absorbance at 490 nm for CellTiter 96® and at 570 nm for alamarBlue®, using 600 nm as a reference. […] Experiments were completed with at least three biologic replicates, and data reported as fold change ± SEM.

SK-N-AS cells = test: alamarBlue viability, SK-N-AS; assay type: cell-based, human; conditions: 24 h
Method: as §1
Supplemental Figure S3: Novel PP2A activating compounds decrease d neuroblastoma proliferation and viability. SK-N-AS and SK-N-BE(2) cells (1.5 x 104) were plated in 96-well plates and treated with increasing doses of nine PP2A activating compounds for 24 […]
novel PP2A activators tested in (A) SK-N-AS and (B) SK-N-BE(2) cells. Similarly, PP2A […]
(D) SK-N-BE(2) cells. Data reported as mean fold change ± SEM, and experiments were repeated with at least three biologic replicates. […]

SH-EP cells = test: Annexin V/PI apoptosis flow cytometry, SH-EP; assay type: cell-based, human; conditions: 10 µM, 24 h
Method: Apoptosis was evaluated using the FITC Annexin V Apoptosis Detection Kit (BD Biosciences) according to manufacturer’s protocol. SH-EP cells (5 × 10^5) were treated with either 792 or 1154 (10 µM) for 24 h. Cells were trypsinized, washed with PBS, centrifuged, and re-suspended in 100 μL of 1× binding buffer (0.1 M HEPES/NaOH, 1.4 M NaCl, 25 mM CaCl2, pH 7.4). Annexin V-FITC staining solutions were added, and cells were incubated for 15 min at room temperature (20–25 °C) in the dark. Cells were washed in 1 mL of 1× binding buffer, centrifuged, and re-suspended in 500 μL of 1× binding buffer. PI was added, and cells sat on ice for 1 h prior to flow cytometry. Unstained cells and cells stained with either PI or Annexin V alone were utilized for negative controls and compensation. The percent of Annexin V and/or PI positive cells was determined via flow cytometry using the Attune NxT Flow Cytometer (Invitrogen). Data are represented as percent cell population with Annexin V + PI− stained cells representing early apoptotic cells, Annexin V + PI + cells representing late apoptotic cells, cells not stained with Annexin V or PI representing live cells, and cells stained with PI only representing necrotic or dead cells. FlowJo software (FlowJo, LLC) was used for data analysis. Data reported as mean ± SEM.
Supplemental Figure S6: 792 and 1154 treatment and apoptosis. Cells were serum starved and treated with 792 or 1154 to evaluate the cell cycle as previously described (Figure 4).
(A) The percent of cells in the subG1 (<G1) is reported in tabular form. There was no sig-nificant increase in the subG1 population in any of the cell lines except for SH-EP cells […]
subG1 population, further investigation of apoptosis was performed. Cells were treated with 792 or 1154 (0, 10 µM) for 24 hours and were assessed by flow cytometry of Annexin V/PI dual staining, and FlowJo was used for analysis. […]
significant increase (B) in early apoptosis (Annexin V + PI - cells, quadrant Q3) (C) whereas […]
mechanism behind the effect of these drugs on viability. […]

SET = test: Immunoblotting of SET in neuroblastoma cells; assay type: cell-based, human; conditions: increasing concentrations, 24 h; four cell lines and two PDXs
Method: Following treatment, cells were lysed on ice using radioimmunoprecipitation (RIPA) buffer with phosphatase inhibitors (P5726, Sigma Aldrich), protease inhibitors (P8340, Sigma Aldrich), and phenylmethanesulfonylfluoride (PMSF, P7626, Sigma Aldrich) for 60 min. Cell lysates were centrifuged at 17,000 rpm for 30 min at 4 °C. Pierce™ BCA Protein Assay (Thermo Fisher Scientific, Inc.) determined protein concentration and proteins were separated by electrophoresis on sodium dodecyl sulfate polyacrylamide (SDS-PAGE) gels. Expected size of the targeted proteins was confirmed using molecular weight markers (Precision Plus Protein Kaleidoscope, Bio-Rad, Hercules, CA, USA). […] Immunoblots were developed with Luminata Classico or Crescendo Western horseradish peroxidase substrate (EMD Millipore, Burlington, MA, USA). Either anti-vinculin or anti-β-actin (as available from manufacturer) served as an internal loading control. We performed densitometry of Western blots using ImageJ software (Ver 1.49, http://imagej.nih.gov/ij (accessed on 9 February 2022).

[2] = Microsome (oxidative metabolism) stability, human; assay type: in vitro ADME; conditions: for half-life at 1 µM: liver microsomes 0.5 mg/mL, NADPH, read-out: T1/2 Human; for microsomal CLint at 1 µM: liver microsomes, read-out: CL Human
Method: Microsome stability assays were performed by Bioduro, LLC. Briefly, 2.5 µL (100 µM in DMSO) of test compounds are added to 197.5 µL of human, rat, or mouse microsome preparation (0.633 mg/mL in phosphate buffer) and mixed gently at 37 °C. The reaction is started by adding 50 µL NADPH (5 mM in phosphate buffer) and mixing at 37 °C. The final reaction microsome concentration is 0.5 mg/mL. The reaction is sampled at 0, 5, 15, 30, and 60 min. Reaction aliquots are quenched by adding to 1:1 methanol–acetonitrile containing analytical standards and analyzed by liquid chromatography with tandem mass spectrometry (LC-MS/MS).

For O=S(=O)(N[C@H]1COC[C@@H](n2c3ccc(Cl)cc3c3cc(Cl)ccc32)[C@@H]1O)c1ccc(OC(F)(F)F)cc1 [ATUX-792], the proliferation [1] was “significantly decreased proliferation”, the LD50 (SK-N-AS cells) was 12.2 µM and the “early apoptosis (Annexin V/PI)” value (SH-EP cells) was “significant increase in early apoptosis”. For the same molecule, the “late apoptosis (Annexin V/PI)” value (SH-EP cells) was “increased cells in late apoptosis”, the SET expression (SET) was “unchanged” and the half-life at 1 µM [2] was > 256 min. The microsomal CLint at 1 µM [2] was < 5 µL/min/mg.

In the case of O=S(=O)(NC1CCCC(N2c3ccccc3CCc3ccccc32)C1O)c1ccc(OC(F)(F)F)cc1 (stereo not shown) [DBK-1154], the proliferation [1] is reported as “significantly decreased proliferation”, the LD50 (SK-N-AS cells) is reported as 13.9 µM and the “late apoptosis (Annexin V/PI)” value (SH-EP cells) is reported as “increased cells in late apoptosis”. The SET expression (SET) was “unchanged”, the half-life at 1 µM [2] was 10 min and the microsomal CLint at 1 µM [2] was 134 µL/min/mg.
